Reference: patent US20160199380A1, “Sigma Ligands For the Prevention or Treatment of Pain Induced by Chemotherapy” (Laboratorios del Dr. Esteve, S.A., priority 2009, published 2016)

How the values were obtained:
[1] = system: paclitaxel-induced cold allodynia; assay: Acetone test, paclitaxel-induced cold allodynia in mice; assay type: in vivo, CD-1 mice
Procedure: (§1) Experiments were performed in CD-1 mice (Charles River, U.S.A.) with at least n=10/experimental group. […] Control animals received the same volume of solvent (a mixture of ethanol and cremophor EL)
(§2) Mechanical allodynia was evaluated with an electronically driven Von Frey filament (Dynamic Plantar. Aesthesiorneter, Ugo Basile, Varese, Italy) as previously described (Nieto et al., Pain, 2008, 137(3), 520-31), and cold allodynia was evaluated using the acetone drop method (Nieto et al., Pain, 2008, 137(3), 520-31). […] In addition, in order to study the influence of the sigma 1 receptor in this process the difference in development of allodynia was determined using wild-type mice and sigma 1-receptor knock-out-mice.
Therefore, the cumulative dose was 10 mg/kg per mouse. […]
The response of the animals to the different nociceptive stimuli was tested subsequently during 2-4 weeks, depending on the test (see below), without any additional treatment. Each animal was tested only in one nociceptive model. […] Each animal received only one dose of compound 63 and was tested in only one nociceptive model.
Procedure for assessment of cold allodynis. Cold allodynia was tested as previously described by Nieto et al., Pain, 2008, 137(3), 520-31, by gently touching the plantar skin of the hind paws with an acetone bubble formed with a syringe connected to a thin polyethylene tube. The mice were housed and habituated for 30 min in transparent plastic boxes (7×7×13 cm) with a floor made of wire mesh. After the adaptation period, acetone was applied alternately three times to each paw at intervals of 30 s, and the duration of licking or biting were recorded. A small mirror was placed behind the chambers to allow clear observation of the paws. The time spent licking or biting the paw was recorded by a stopwatch and represented as the cumulative time of licking/biting in the six measurements. Since licking persisting more than 10 s in the experiments was very unusual, a cut-off time of 10 s was used for each trial.
Therefore, the day 10, after the habituation period to the apparatus, baseline latencies were recorded, 30 min later compound 63 or saline was injected s.c. and paw withdrawal latencies were assessed again 60, 120 and 180 minutes after the injection.
(§3) On that day, duration of hind paw licking/biting was recorded immediately before (time 0) and at several times (60, 120 and 180 min) after the injection of compound 63 or saline.
as §3

[2] = system: paclitaxel-induced mechanical allodynia; assay: Electronic Von Frey (Dynamic Plantar Aesthesiometer), paclitaxel-induced mechanical allodynia in mice; assay type: in vivo, CD-1 mice
Procedure: as §1, §2
Therefore, the cumulative dose was 10 mg/kg per mouse. In the control group the vehicle of paclitaxel was administered following the same schedule.
Compound 63 was dissolved in normal saline just before administration and applied at doses of 8, 16, 32 or 64 mg/kg subcutaneously.
The effects of Compound 63 on paclitaxel-induced neuropathic pain were examined in two different ways. […] The response of the animals to the different nociceptive stimuli was tested subsequently during 2-4 weeks, depending on the test (see below), without any additional treatment. Each animal was tested only in one nociceptive model. To test the effect of compound 63 on the expression of paclitaxel-induced pain, a single compound 63 injection was performed on day 10, a day of maximum expression of mechanical allodynia or cold aliodynia (see figures for details). Each animal received only one dose of compound 63 and was tested in only one nociceptive model.
Procedure for assessment of mechanical allodynia. To assess mechanical allodynia, paw withdrawal thresholds were measured using a Dynamic Plantar Aesthesiometer (Ugo Basile, Italy). The electronic Von Frey device employs a single nonflexible filament which applies a progressively increasing force (from 0 to 10 g) against the plantar surface of the hind paw over a 20 a period. […] The day of the experiment, mice were placed individually in test compartments (9×9×14 cm) with a wire mesh bottom and allowed to acclimatize to them for 2 h. After habituation, each mouse was tested three times alternately in each hind paw.
On that day, paw withdrawal latency was recorded immediately before (time 0) and at several times (30, 60, 90, 120 and 180 min) after the injection of compound 63 or saline.

[3] = system: Oxaliplatin-induced cold allodynia; assay: Acetone test, chronic model of oxaliplatin-induced neuropathy in rats; assay type: in vivo, Sprague-Dawley rats; details: for reaction time of paw withdrawal (acetone test), curative treatment: throughout the study
Procedure: Sixty male Sprague-Dawley rats (CERJ, France), weighing 136-169 g at the beginning of the experimental phase (first administration of compounds on D-2), were used. Rats were housed in a temperature (19.5° C.-24.5° C.) and relative humidity (45%-65%) controlled room with a 12 h—light/dark cycle, with ad libitum access to standard pelleted laboratory chow and water throughout the study.
All treatments were administered in a coded order when it is possible.
Animals were tested 2 times during treatment with compound 63 (i.e. D8 and D15) and once 24 h after completion of treatment with compound 63 (i.e. D16).
During the testing days (i.e. D8, D15), compound 63 and 0.5% HPMC were administered 30 min before the test.
Cold allodynia was assessed by measuring the responses to thermal non-nocic ptive stimulation (acetone test) on D8, D15 and D16.
Cold allodynia was assessed using the acetone test. In this test, latency of hindpaw withdrawal was measured after application of a drop of acetone to the plantar surface of both hindpaws (reaction time) and the intensity of tne response was scored (cold score).
Reaction time to the cooling effect of acetone was measured within 20 sec (cut-off) after acetone application. Responses to acetone were also graded to the following 4-point scale: 0 (no response); 1 (quick withdrawal, flick of the paw); 2 (prolonged withdrawal or marked flicking of the paw); 3 (repeated flicking of the paw with licking or biting).
For each experimental group, the results were expressed as: • The reaction time defined as the time expressed in sec required to elicit paw reaction (mean of 6 measures for each rat together±SEM). • The cumulative cold score defined as the sum of the 6 scores for each rat together±SEM. The minimum score being 0 (no response to any of the 6 trials) and the maximum possible score being 18 (repeated flicking and licking or biting of paws on each of the six trials).
Statistical significance between the treated groups and the vehicle-treated group was determined by a Two-way Repeated Measures ANOVA on Ranks followed, when the F value is significant, by an appropriate post-hoc comparison (Bonferroni's test sing SigmaStet software. The significance level was p<0.05. Statistical analyses were done using SigmaStet software.

Which results are given for Cc1cc(OCCN2CCOCC2)nn1-c1ccc2ccccc2c1 [Compound 63, 4-{2-[5-Methyl-1-(naphthalen-2-yl)-1H-pyrazol-3-yloxy]ethyl}morpholine]?
response of the animals to acetone, co-administration with paclitaxel-vehicle ([1]; 64 mg/kg s.c. 30 min before each paclitaxel-vehicle injection, days 1-5, vs paclitaxel-vehicle + saline): did not significantly modify the response of the animals to acetone; response to acetone of control (paclitaxel-vehicle treated) animals ([1]; 64 mg/kg s.c. single injection on day 10, paclitaxel-vehicle treated mice): did not afex: the response to acetone; development of cold allodynia induced by paclitaxel (acetone test) ([1]; co-administration: 64 mg/kg s.c. 30 min before each paclitaxel 2 mg/kg i.p. injection, days 1-5, mice): inhibited the development of cold allodynia induced by paclitaxel; expression of paclitaxel-induced cold allodynia (duration of hind paw licking/biting, acetone test) ([1]; single s.c. injection 32-128 mg/kg on day 10 after paclitaxel 2 mg/kg i.p. days 1-5, mice, vs saline): inhibited the expression of paclitaxel-induced cold allodynia; mechanical response of control (paclitaxel-vehicle treated) animals ([2]; 64 mg/kg s.c. single injection on day 10 after first paclitaxel-vehicle injection): did not affect the mechanical response; expression of mechanical allodynia induced by paclitaxel (threshold force for hind paw withdrawal) ([2]; 64 mg/kg s.c. single injection on day 10 after paclitaxel 2 mg/kg i.p. days 1-5): inhibited the expression of mechanical aliodynia induced by paclitaxel; reaction time of paw withdrawal (acetone test), curative treatment ([3]; 20 mg/kg i.p. daily D8-D15): low effect; cumulative cold score (acetone test), curative treatment ([3]; 40 mg/kg i.p. daily D8-D15): intermediate effect; reaction time of paw withdrawal (acetone test), curative treatment ([3]; 40 mg/kg i.p. daily D8-D15): intermediate effect; reaction time of paw withdrawal (acetone test), preventive treatment ([3]; 40 mg/kg i.p. twice a day from D-2 to D15, oxaliplatin 3 mg/kg i.p., rats): induced a beneficial effect; cumulative cold score (acetone test) ([3]; curative, 20 mg/kg i.p., D8): 4.3±0.6; cumulative cold score (acetone test) ([3]; curative, 80 mg/kg i.p. daily D8-D15, D15): 1.8±0.3; reaction time of paw withdrawal (acetone test) ([3]; curative, 80 mg/kg i.p. daily D8-D15, D15, oxaliplatin 3 mg/kg i.p., rats): 17.5 ± 0.5 s; reaction time of paw withdrawal (acetone test) ([3]; curative, 80 mg/kg i.p. daily D8-D15, D16 (24 h after last dose), oxaliplatin 3 mg/kg i.p., rats): 15.5 ± 1.0 s; cumulative cold score (acetone test) ([3]; curative, 80 mg/kg i.p. daily D8-D15, D16, 24 hours after the last injection): 3.1±0.6; reaction time of paw withdrawal (acetone test) ([3]; curative, 80 mg/kg i.p. daily from D8, D8, oxaliplatin 3 mg/kg i.p., rats): 19.1 ± 0.3 s; cumulative cold score (acetone test) ([3]; curative, 80 mg/kg i.p., D8): 1.0±0.4; cumulative cold score (acetone test) ([3]; preventive, 40 mg/kg i.p. twice a day D-2 to D15, D8): 2.3±0.6; cumulative cold score (acetone test) ([3]; preventive, 40 mg/kg i.p. twice a day D-2 to D15, D15): 3.0±0.6; cumulative cold score (acetone test) ([3]; preventive, 40 mg/kg i.p. twice a day D-2 to D15, D16): 3.5±0.7
